This is an account of results in patent US8808715B1, “Methods and compositions for modulating keratinocyte function” (Georgia Regents Research Institute, Inc, priority 2004, dated 2014).

Experiment [1] addresses T1, PLD-2 (Homo sapiens, UniProt O14939).
T1 construct: purchased Onyx Pharmaceuticals; host or cells: Sf9 insect cells (membrane preparation)
Put plainly: In vitro assay of phosphatidylglycerol formation by PLD-2 (transphosphatidylation). It counts as biochemical. The method, then:
FIGS. 5 A and B illustrate that glycerol serves as a substrate for phospholipase D in the transphosphatidylation reaction in vitro. Liposomes were prepared from [^3H-dipalmitoyl]phosphatidylcholine, phosphatidylethanolamine, phosphatidylcholine and phosphatidylinositol 4,5-bisphosphate by sonication. Glycerol at the indicated concentrations in the absence (A) or presence of 1% ethanol (B) was added to the reaction mix. Reactions were initiated by the addition of Sf9 PLD2-overexpressing membranes (1 μg protein), incubated for 30 minutes at 37° C. and terminated by the addition of 0.2% SDS (±5 mM EDTA). Lipids were extracted, separated, and quantified. The figure is representative of at least two additional experiments. There was some variability in the absolute levels of phosphatidic acid (PA), PG and phosphatidylethanol (PEt) formed, likely due to variations in the extent of formation of multilamellar vesicles during sonication.
PLD-2 activity was measured in vitro with [^3H-palmitoyl]phosphatidylcholine as substrate. […] Lipids were extracted according to the method of Bligh and Dyer and radiolabeled phospholipids separated and quantified, as described in W. B. Bollag, “Measurement of phospholipase D activity, Methods” Mol. Biol. 105 (1998) 151-160, incorporated herein by reference.

Experiment [2] concerns keratin 5 promoter. The experiment in a line: Co-transfection analysis, keratin 5 promoter-luciferase reporter. Format: cell-based, mouse. The conditions noted are these: glycerol 0.2%, 24 hours. The method, then: FIGS. 15A-B illustrate that glycerol, but not xylitol or sorbitol, inhibits DNA synthesis and enhances the inhibitory effect of an elevated extracellular Ca^2+ concentration. (A) Near-confluent keratinocytes were incubated for 24 hours with 0.02 or 0.1% glycerol and DNA synthesis measured as the incorporation of [^3H] thymidine incorporation into DNA. (B) Near-confluent keratinocytes were incubated for 24 hours with the indicated concentrations of glycerol (G, squares) or equivalent concentrations of xylitol (X, circles) in SFKM containing 25 μM (control; open symbols) or 125 μM Ca^2+ (Ca^2+; closed symbols). (C) Near-confluent keratinocytes were incubated for 24 hours with the indicated concentrations of glycerol (G) or equivalent concentrations of sorbitol (S, triangles) in SFKM containing 25 μM (control; open symbols) or 125 μM Ca^2+ (Ca^2+; closed symbols) for 24 hours. [^3H]Thymidine incorporation into DNA was then determined. Values represent the means±SEM of 4 to 5 separate experiments performed in duplicate; *p<0.05, **p<0.01 versus the control value, †p<0.05 versus the value in the presence of Ca^2+ alone. […] After 24 hours cells were refed with medium containing no addition (control) or 0.2% glycerol for an additional 24 hours. Luciferase activity was then measured using a Dual Luciferase kit as directed by the manufacturer. […] The blots were quantified using the Kodak molecular imaging software. […]
The keratin 5 and keratin 10 promoter-luciferase constructs were provided by of Dr. Bogi Andersen (University of California, Irvine, Calif.); the involucrin promoter-luciferase construct was provided by Dr. Daniel Bikle (University of California, San Francisco, Calif.). […] Luciferase activity was then measured using the Dual Luciferase Reporter Assay kit (Promega, Madison, Wis.) as directed by the manufacturer.

Experiment [3] deals with rapidly dividing keratinocytes. The experiment in a line: Assay of DNA synthesis ([3H]thymidine incorporation) in rapidly dividing keratinocytes. Format: cell-based. The conditions noted are these: 24 hours. The method, then:
Keratinocytes were prepared from ICR CD-I outbred mice in accordance with a protocol approved by the Institutional Animal Care and Use Committee. Briefly, the skins were harvested and incubated overnight in 0.25% trypsin at 4° C. The epidermis and dermis were separated and basal keratinocytes scraped from the underside of the epidermis. The cells were collected by centrifugation and incubated overnight in an atmosphere of 95% air/5% carbon dioxide at 37° C. in plating medium as described in Dodd M E, Ristich V L, Ray S, Lober R M, Bollag W B (2005) Regulation of protein kinase D during differentiation and proliferation of primary mouse keratinocytes. J Invest Dermatol 125:294-306, incorporated herein by reference. The plating medium was replaced with serum-free keratinocyte medium (SFKM) also as in Dodd, et al., and the cells were refed every 1-2 days with fresh medium until use.
[^3H]Thymidine incorporation into DNA was determined as a measure of DNA synthesis as previously described by Griner, et al., above. Near-confluent keratinocyte cultures were incubated for 24 hours in SFKM containing the indicated additions. PG was added in the form of liposomes prepared by bath sonication of dried PG in SFKM to make a stock solution of 2 mg/mL. [^3H]Thymidine at a final concentration of 1 μCi/mL was then added to the cells for an additional 1-hour incubation. Reactions were terminated by washing with PBS- and macromolecules precipitated with ice-cold 5% trichloroacetic acid. Cells were solubilized in 0.3 M NaOH and the radioactivity incorporated into DNA quantified by liquid scintillation spectroscopy.
[^3H]Thymidine incorporation was used as a measure of DNA synthesis and was performed as described in Example 2. Liposomes containing PG and functional derivatives thereof were prepared by bath sonication as described in Example 2, with the exception that different concentrations of material were employed.

Experiment [4] relates to ICR CD1 mice. Put plainly: Wound healing of full-thickness skin punch biopsies. It counts as in vivo, mouse. The conditions noted are these: topical; 2M glycerol in water, or 100 μg/mL phosphatidylglycerol liposomes in PBS-. From the text:
This example presents recent data on the effects of glycerol and phosphatidylglycerol treatment on wound healing obtained in ICR CD1 mice. Two full-thickness skin punch biopsies of˜4 mm were made on the backs of a total of sixteen mice. […] The rate of wound healing was then followed over four days by digital photography and computer image analysis.

Experiment [5] concerns AQP3 null mutant mouse. The conditions noted are these: studies of the AQP3 null mutant mouse; cited from earlier work.

T1 sequence (O14939 whole entry, species assumed): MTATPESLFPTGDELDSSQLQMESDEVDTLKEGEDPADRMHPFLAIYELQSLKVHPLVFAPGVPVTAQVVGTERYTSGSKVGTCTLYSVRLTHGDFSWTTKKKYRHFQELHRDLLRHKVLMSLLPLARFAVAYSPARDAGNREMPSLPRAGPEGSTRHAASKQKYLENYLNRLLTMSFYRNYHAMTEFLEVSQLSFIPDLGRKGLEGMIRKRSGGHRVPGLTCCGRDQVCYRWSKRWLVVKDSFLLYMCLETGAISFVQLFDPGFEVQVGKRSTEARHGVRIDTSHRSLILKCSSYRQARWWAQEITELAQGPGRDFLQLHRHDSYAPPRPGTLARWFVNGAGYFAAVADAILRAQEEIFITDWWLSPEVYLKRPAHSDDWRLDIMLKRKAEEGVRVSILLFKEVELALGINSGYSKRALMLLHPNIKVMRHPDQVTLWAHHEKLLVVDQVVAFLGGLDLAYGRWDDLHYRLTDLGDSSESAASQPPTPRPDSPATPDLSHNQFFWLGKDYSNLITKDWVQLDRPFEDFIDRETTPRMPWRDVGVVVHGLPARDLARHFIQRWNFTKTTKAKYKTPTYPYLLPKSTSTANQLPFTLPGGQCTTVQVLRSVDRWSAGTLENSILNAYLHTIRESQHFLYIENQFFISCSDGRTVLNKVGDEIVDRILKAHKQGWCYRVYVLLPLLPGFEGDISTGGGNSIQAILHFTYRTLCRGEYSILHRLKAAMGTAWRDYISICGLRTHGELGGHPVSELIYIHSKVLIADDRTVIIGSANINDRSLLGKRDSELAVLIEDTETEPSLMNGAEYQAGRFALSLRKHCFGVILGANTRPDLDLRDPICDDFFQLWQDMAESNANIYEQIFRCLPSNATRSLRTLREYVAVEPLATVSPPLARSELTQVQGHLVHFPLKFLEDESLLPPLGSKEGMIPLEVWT

Consider `OCC(O)CO` [glycerol], for which the “formation of PG from phosphatidylcholine (glycerol as substrate for transphosphatidylation)” value in experiment [1] (PLD2-overexpressing Sf9 membranes, 30 minutes at 37° C.) was “PLD2 catalyzed the formation of PG from phosphatidylcholine in the presence of glycerol”. Further, the “competition with ethanol in the transphosphatidylation reaction” value in experiment [1] (in presence of 1% ethanol) is “could compete with the primary alcohol ethanol to generate PG in place of phosphatidylethanol”. Also, the “reduction in keratin 5 promoter activity” value in experiment [2] (empty vector) is listed as approximately 9%; in experiment [2] (keratinocytes transfected with AQP3) it was approximately 47%. Moreover, the “effect on DNA synthesis in presence of 125 μM Ca2+” value in experiment [3] (125 μM Ca2+ medium) was “enhanced the inhibitory effect of 125 μM Ca^2+”. Also, in experiment [3] (control (25 μM Ca2+) medium), the “effect on DNA synthesis ([3H]thymidine incorporation into DNA)” value is “inhibited DNA synthesis”. For the same compound, the “lowest concentration that significantly inhibited DNA synthesis” value in experiment [3] (0.02% = 2.73 mM) is 0.02%. Further, the “rate of wound healing (percentage on day 4 relative to day 1)” value in experiment [4] is reported as “improved the rate of wound healing”. Further, in experiment [5], the “correction of the epidermal phenotype of the knockout model” value is on record as “could correct the epidermal phenotype”.
